Reference: patent US20040034021A1, “Intravenous rifalazil formulation and methods of use thereof” (priority 2002, published 2004)
Converted amounts (≈) assume the structure as drawn.

Tests used:
[1] = solubility of rifalazil in aqueous test solutions (UV-Vis); assay type: physicochemical
Protocol: In order to determine its solubility, to a vial containing solid rifalazil was added a volume of aqueous test solution. The vial was capped and sonicated for about an hour and the remaining undissolved solids were left to settle overnight. The vial was then vortexed for 1 minute, sonicated for another 30 minutes, and centrifuged for 1 hour at 3500 RPM. The supernatent was separated from undissolved rifalazil. The concentration of rifalazil in the test solution was determined by UV-Vis absorbance using a suitable spectrophotometer. Using this method, the solubility of rifalazil was determined as a function of pH (see FIG. 1); in PEG 400-water, propylene glycol-water, and ethanol-water mixtures (see FIG. 2); in Tween-40-water and Tween-80-water mixtures (see FIG. 3); in dodecyltrimethylammonium bromide-water, sodium chenodeoxycholate-water, sodium Octylsulfate-water, sodium deoxycholate-water, sodium cholate-water, and sodium dodecylsulfate-water mixtures (see FIG. 4); in sodium dodecylsulfate- water mixtures at pH 5.4 and 7.4 (see FIG. 5); and in PEG-35 castor oil-water mixtures (see FIG. 6).

[2] = stability against hydrolytic degradation to des-acetyl rifalazil (HPLC); assay type: physicochemical
Protocol: Rifalazil solutions containing the micelle-forming excipient PEG-35 castor oil, prepared as described in Example 2, and without a micelle-forming excipient (15% ethanol, phosphate buffer pH=7.6, 0.9% NaCl) were monitored for stability against the hydrolytic degradation of rifalazil at temperatures of 25° C., 40° C., 50° C., and 60° C. (see FIGS. 7 and 8). The degradation was monitored for several days by HPLC for the disappearance of rifalazil or the appearance of des-acetyl rifalazil, the degradation product that results from the hydrolysis of rifalazil.

S. aureus = assay: MIC by broth microdilution method; assay type: cell-based; conditions: Staphylococcus aureus, CAMH broth, vehicle as in Example 2, 35-37° C., 20-24 hours
Protocol: The MIC (minimum inhibitory concentration) of rifalazil against S. aureus was determined by the broth microdilution method. A vehicle prepared as described in Example 2 was diluted in Cation Adjusted Mueller-Hinton (CAMH) broth to create working solutions that were 4× the maximum concentration to be tested on each microtiter plate. The 4× working solutions were added to the wells of the 96 well microtiter plate and serially diluted two-fold across 11 wells into CAMH.
To prepare the test strain inoculum, 3-5 colonies of S. aureus from a pure 18-24 hour culture grown on a primary agar plate were emulsified into demineralized water and adjusted to a 0.5 McFarland turbidity standard using a calibrated nephelometer. This suspension was then diluted further (1:100) into CAMH broth to yield an inoculum suspension containing approximately 10^6 CFU/ml. Aliquots of the inoculum suspension were added to the rifalazil-containing wells to yield a final concentration in the well of 1-8×10^5 CFU/ml. The microtiter plates were incubated at 35-37° C. for 20-24 hours. The MIC was read as the lowest concentration of the compound that inhibits visible growth.

## CO[C@H]1/C=C/O[C@@]2(C)Oc3c(C)c(O)c4c(=O)c(c5oc6cc(N7CCN(CC(C)C)CC7)cc(O)c6nc-5c4c3C2=O)NC(=O)/C(C)=C\C=C\[C@H](C)[C@H](O)[C@@H](C)[C@@H](O)[C@@H](C)[C@H](OC(C)=O)[C@@H]1C [Rifalazil, rifalazil]
[1]; water at pH 7 (FIG. 1)
  ratio of 100 μg/mL (typical low IV dosage concentration) to solubility of the drug in water: 5,000 times
[1]; water at physiological pH
  solubility in water: virtually insoluble
[2]; PEG-35 castor oil solution of Example 2 vs 15% ethanol, phosphate buffer pH 7.6, 0.9% NaCl, 25-60° C. (FIGS. 7 and 8)
  effect of micelle-forming excipient on hydrolytic degradation of rifalazil: inhibits the hydrolytic degradation
[2]; aqueous environments under ambient conditions, no micelle-forming excipient (FIG. 8)
  hydrolytic degradation of rifalazil: occurs readily
S. aureus
  MIC: 0.015 µg/mL (≈ 0.0159 µM)
